Assay results as given in patent US9253983B2, “Triazole compound and use thereof” (KUREHA CORPORATION, priority 2011, dated 2016).

What was measured:
[1] = test system: Botrytis cinerea; test: Controlling effect on cucumber gray mold by foliage spray treatment (Tests 1 and 2); type: in vivo; conditions: four days after inoculation
Procedure: The cucumber plants had been grown in square plastic pots (6 cm×6 cm). After the suspension was then left to dry, paper discs (8 mm in diameter) impregnated with a spore suspension of Botrytis cinerea w ere placed on the leaves, and the plants were kept at 20° C. in a high humidity environment. Four days after inoculation, the lesion degree of the cucumber gray mold was examined in accordance with the criteria shown in Table 1, and the protective values were calculated by the following equation: Protective value (%)=(1−Average lesion degree in sprayed plot/Average lesion degree in unsprayed plot)×100.
The cucumber plants had been grown in square plastic pots (6 cm×6 cm). After the leaves were air-dried, paper discs (8 mm in diameter) impregnated with a spore suspension of cucumber graymold-causing microorganisms were placed on the leaves, and the plants were kept at 20° C. in a high humidity environment. 4 days after the inoculation, the lesion degree of the cucumber gray mold was examined, and the protective values were calculated as were in Experiment Example 1.

[2] = test system: Puccinia recondita; test: Efficacy of seed treatment on wheat brown rust; type: in vivo; conditions: wheat seed treatment 20 g ai/100 kg seeds, 12 days after inoculation
Procedure: A pot experiment was performed to evaluate the efficacy of seed treatment in controlling wheat leaf rust. Compound (1-1a) and Compound (1-2a), each of which was dissolved in DMSO to make up such a concentration that the seeds would be treated in treatment amount of 20 g ai/100 kg seeds, were each applied to wheat seeds in a vial, and thereafter 8 wheat seeds were sowed on an 80-cm^2 pot. The pot was kept in a greenhouse with water supplied to its bottom. 21 days after the sowing, the wheat seeds were inoculated with Puccinia recondita, and kept in a wet box for 2 days. After that, the pot was again kept in the greenhouse with water supplied to its bottom. 12 days after the inoculation, the percentage of affected area was found, and the protective value was calculated by the following equation. Protective value (%)=(1−(Percentage of affected area in treated region/Percentage of affected area in untreated region))×100

[3] = test system: wheat; test: Growth inhibition (adverse effects) of seed treatment on wheat seeds; type: in vivo; conditions: for Growth inhibition index: wheat, 20 days after sowing
Procedure: A pot experiment was performed to evaluate the growth inhibition (adverse effects) caused by the seed treatment. Compound (1-1a) and Compound (1-2a), each of which was dissolved in DMSO to make up such a concentration that the seeds would be treated in treatment amount of 2 g to 200 g ai/100 kg seeds, were each applied to wheat seeds in a vial, and thereafter 8 wheat seeds were sowed in an 80-cm^2 pot. The pot was kept in a greenhouse with water supplied to its bottom. 20 days after the sowing, a growth measure of wheat was evaluated. A growth inhibition index was calculated based on the criteria shown by Table 10. In Table 10, a smaller growth inhibition index indicates a lesser adverse effect of growth inhibition caused by the treatment with the use of a plant disease controlling agent.

[4] = test system: Microdochium nivale; test: Test 1 for antifungal effect, plate medium: M.n; type: cell-based; conditions: PDA plate medium
Procedure: Compound (1-1a) or Compound (1-2a) was dissolved in dimethyl sulfoxide, and the resulting solution was added to a PDA medium (potato dextrose-agar medium) at about 60° C. The medium and the solution were mixed thoroughly in a conical flask, poured into a petri dish, and allowed to solidify. In this way, a plate medium containing Compound (1-1a) or Compound (1-2a) at a certain concentration was prepared.
Meanwhile, test microorganisms cultured on a plate medium in advance were cut out with the use of a cork borer 4 mm in diameter, and were inoculated onto the compound-containing plate medium. After the inoculation, the microorganisms were cultured at their optimum growth temperatures (for example, refer to LIST OF CULTURES 1996 microorganisms 10th edition, Institute for Fermentation (foundation)) for 1 day to 7 days, and their growth was determined by measuring the diameter of their flora. The extent of growth of the microorganisms on the compound-containing plate medium was compared with that of microorganisms on a plate medium where no compound was added, and mycelial growth inhibition rate was calculated by the following equation: R=100(dc−dt)/dc where R is mycelial growth inhibition rate (%), dc is the flora diameter in untreated plate, and dt is the flora diameter in plate treated with the compound.
A larger antifungal index indicates a better antifungal effect.

[5] = test system: Fusarium oxysporum; test: Test 2 for antifungal effect, plate medium: F.c; type: cell-based; conditions: PDA plate medium
Procedure: (§1) Compound (1-1b) or Compound (1-2b) was dissolved in dimethyl sulfoxide, and the resulting solution was added to a PDA medium (potato dextrose-agar medium) at about 60° C. The medium and the solution were mixed thoroughly in a conical flask, poured into a petri dish, and allowed to solidify. In this way, a plate medium containing Compound (1-1b) or Compound (1-2b) at a certain concentration was prepared.
(§2) Meanwhile, test microorganisms cultured on a plate medium in advance were cut out with the use of a cork borer 4 mm in diameter, and were inoculated onto the compound-containing plate medium. After the inoculation, the pathogens were cultured at their optimum growth temperatures (for example, refer to LIST OF CULTURES 1996 microorganisms 10th edition, Institute for Fermentation (foundation)) for 1 day to 7 days, and their growth was determined by measuring the diameter of their flora. The extent of growth of the pathogens on the compound-containing plate medium was compared with that of pathogens on a plate medium where no compound was added, and mycelial growth inhibition rate was calculated as in Experiment Example 10. Note that, in Experiment Example 11, controls used in the antifungal effect tests are Compound (1-1a) and Compound (1-2a) instead of Compound (1-1b) and Compound (1-2b), respectively.
(§3) The results were rated on a 1-to-5 scale as in Experiment Example 10.

[6] = test system: Penicillium italicum; test: Test 2 for antifungal effect, plate medium: P.i; type: cell-based; conditions: PDA plate medium
Procedure: as §1, §2, §3

[7] = test system: Septoria tritici; test: Test 2 for antifungal effect, plate medium: S.t; type: cell-based; conditions: PDA plate medium
Procedure: as §1, §2, §3

[8] = foliage spray 3.1 mg/L, 1,000 L/ha
[9] = foliage spray 12.5 mg/L, 1,000 L/ha
[10] = treatment amount 2 g ai/100 kg seeds
[11] = treatment amount 20 g ai/100 kg seeds
[12] = treatment amount 200 g ai/100 kg seeds

Row | Structure (SMILES) | Protective value (%) [1, 8] [%] | Protective value (%) [1, 9] [%] | Growth inhibition index [3, 10] | Growth inhibition index [3, 11] | Growth inhibition index [3, 12] | Antifungal index (mycelial growth inhibition rate) ([4]; 0.16 mg/L) | Antifungal index (mycelial growth inhibition rate) ([4]; 0.31 mg/L) | Antifungal index (mycelial growth inhibition rate) ([4]; 0.63 mg/L) | Antifungal index (mycelial growth inhibition rate) ([4]; 1.25 mg/L) | Antifungal index (mycelial growth inhibition rate) ([4]; 2.50 mg/L) | Antifungal index (mycelial growth inhibition rate) ([5]; 0.04 mg/L) | Antifungal index (mycelial growth inhibition rate) ([5]; 0.08 mg/L) | Antifungal index (mycelial growth inhibition rate) ([5]; 0.16 mg/L) | Antifungal index (mycelial growth inhibition rate) ([5]; 0.31 mg/L) | Antifungal index (mycelial growth inhibition rate) ([5]; 0.63 mg/L) | Antifungal index (mycelial growth inhibition rate) ([5]; 1.25 mg/L) | Antifungal index (mycelial growth inhibition rate) ([6]; 0.04 mg/L) | Antifungal index (mycelial growth inhibition rate) ([6]; 0.08 mg/L) | Antifungal index (mycelial growth inhibition rate) ([6]; 0.16 mg/L) | Antifungal index (mycelial growth inhibition rate) ([6]; 0.31 mg/L) | other results
1 | CC1(CCl)CCC(Cc2ccc(F)cc2)C1(O)Cn1cncn1 (single isomer, unassigned) [Compound (1-2a), (1,2-cis, 1,5-cis)-5-(4-fluorobenzyl)-2-chloromethyl-2-methyl-1-(1H-1,2,4-triazole-1-ylmethyl)cyclopentanol] | 40 | 100 | 0 (50% or more) | 0 (50% or more) | 2 (Less than 40% but 30% or more) | 1 (Less than 60%) | 1 (Less than 60%) | 2 (Less than 70% but not less than 60%) | 3 (Less than 80% but not less than 70%) | 5 (90% or greater) | 1 (Less than 60%) | 1 (Less than 60%) | 2 (Less than 70% but not less than 60%) | 3 (Less than 80% but not less than 70%) | 4 (Less than 90% but not less than 80%) | 5 (90% or greater) | 1 (Less than 60%) | 1 (Less than 60%) | 3 (Less than 80% but not less than 70%) | 4 (Less than 90% but not less than 80%) | Protective value (%) [2]: 100%; Antifungal index (mycelial growth inhibition rate) ([6]; 0.63 mg/L): 5 (90% or greater); Antifungal index (mycelial growth inhibition rate) ([6]; 1.25 mg/L): 5 (90% or greater); Antifungal index (mycelial growth inhibition rate) ([7]; 0.04 mg/L): 1 (Less than 60%); Antifungal index (mycelial growth inhibition rate) ([7]; 0.08 mg/L): 1 (Less than 60%); Antifungal index (mycelial growth inhibition rate) ([7]; 0.16 mg/L): 1 (Less than 60%); Antifungal index (mycelial growth inhibition rate) ([7]; 0.31 mg/L): 1 (Less than 60%); Antifungal index (mycelial growth inhibition rate) ([7]; 0.63 mg/L): 1 (Less than 60%); Antifungal index (mycelial growth inhibition rate) ([7]; 1.25 mg/L): 3 (Less than 80% but not less than 70%)
2 | CC1(CCl)CCC(Cc2ccc(F)cc2)C1(O)Cn1cncn1 (single isomer, unassigned) [Compound (1-2b), (1,2-cis, 1,5-cis)-5-(4-fluorobenzyl)-2-chloromethyl-2-methyl-1-(1H-1,2,4-triazole-1-ylmethyl)cyclopentanol] | 15 | 98 | 0 (50% or more) | 4 (Less than 20% but 10% or more) | 5 (Less than 10%) | 1 (Less than 60%) | 1 (Less than 60%) | 1 (Less than 60%) | 1 (Less than 60%) | 2 (Less than 70% but not less than 60%) | 1 (Less than 60%) | 2 (Less than 70% but not less than 60%) | 3 (Less than 80% but not less than 70%) | 4 (Less than 90% but not less than 80%) | 5 (90% or greater) | 5 (90% or greater) | 1 (Less than 60%) | 4 (Less than 90% but not less than 80%) | 5 (90% or greater) | 5 (90% or greater) | Growth of the treated seeds ([3]; wheat seed treatment 20 g ai/100 kg seeds (seen in the brown rust seed treatment test)): inhibited; Antifungal index (mycelial growth inhibition rate) ([6]; 0.63 mg/L): 5 (90% or greater); Antifungal index (mycelial growth inhibition rate) ([6]; 1.25 mg/L): 5 (90% or greater); Antifungal index (mycelial growth inhibition rate) ([7]; 0.04 mg/L): 2 (Less than 70% but not less than 60%); Antifungal index (mycelial growth inhibition rate) ([7]; 0.08 mg/L): 5 (90% or greater); Antifungal index (mycelial growth inhibition rate) ([7]; 0.16 mg/L): 5 (90% or greater); Antifungal index (mycelial growth inhibition rate) ([7]; 0.31 mg/L): 5 (90% or greater); Antifungal index (mycelial growth inhibition rate) ([7]; 0.63 mg/L): 5 (90% or greater); Antifungal index (mycelial growth inhibition rate) ([7]; 1.25 mg/L): 5 (90% or greater)
